Our source for the IC50 values is BindingDB's records for doi:10.1016/S0960-894X(01)80746-0 (1993).

This assay in a line: Tested for inhibitory activity of compound against Phospholipase A2 (PLA2).

Structures are written as SMILES.

As a reminder, the IC50 is the midpoint of a concentration-inhibition curve. A higher IC50 goes with lower potency. Compound `CCCCCCCCCCCC(=O)N1C(=O)OC[C@@H]1COP(=O)([O-])OCC[N+](C)(C)C` [{2-[((R)-3-Dodecanoyl-2-oxo-oxazolidin-4-ylmethoxy)-hydroxy-phosphoryloxy]-ethyl}-trimethyl-ammonium] returned a 50% inhibitory concentration (IC50) of 31 µM.

On to `CCCCCCCCCCCC(=O)N[C@H](CCCC)COP(=O)([O-])OCC[N+](C)(C)C` [(2-{[2-((S)-Dodecanoylamino)-hexyloxy]-hydroxy-phosphoryloxy}-ethyl)-trimethyl-ammonium], for which it took 5.3 µM to reach half-maximal inhibition (IC50).
